Data: patent publication US9212153B2, “Inhibitors of beta-secretase” (Vitae Pharmaceuticals, Inc., priority 2009, dated 2015)
Like-named read-outs stand apart in the source and are kept apart here.

What was measured:
[1] = target: truncated human beta-secretase (residues 1-458, His6-tagged at the C-terminus) (Homo sapiens (Human), UniProt P56817); assay: BACE enzyme assay (fluorescence quench, Example 434A); format: biochemical
BACE = BACE (Homo sapiens (Human), UniProt P56817); assay: BACE cell assay (H4-APPsw cells, secreted Aβ 1-40 by AlphaLISA/ELISA); format: cell-based; details: in vitro cell activity
[2] = footnote a: determined according to protocols described in Example 434A

Chain of truncated human beta-secretase (residues 1-458, His6-tagged at the C-terminus) (P56817 22-458): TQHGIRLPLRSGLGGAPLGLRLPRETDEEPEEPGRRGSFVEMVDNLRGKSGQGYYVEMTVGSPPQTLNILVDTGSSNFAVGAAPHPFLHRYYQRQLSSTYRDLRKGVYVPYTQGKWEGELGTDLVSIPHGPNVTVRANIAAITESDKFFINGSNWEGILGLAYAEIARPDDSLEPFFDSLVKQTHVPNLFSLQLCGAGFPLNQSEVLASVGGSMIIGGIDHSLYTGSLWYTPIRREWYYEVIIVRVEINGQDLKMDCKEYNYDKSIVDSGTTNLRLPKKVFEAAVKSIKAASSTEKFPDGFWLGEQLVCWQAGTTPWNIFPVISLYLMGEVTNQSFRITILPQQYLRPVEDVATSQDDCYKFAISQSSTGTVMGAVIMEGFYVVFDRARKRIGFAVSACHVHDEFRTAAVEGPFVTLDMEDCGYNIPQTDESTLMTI
Chain of BACE (P56817 46-501 limits assumed): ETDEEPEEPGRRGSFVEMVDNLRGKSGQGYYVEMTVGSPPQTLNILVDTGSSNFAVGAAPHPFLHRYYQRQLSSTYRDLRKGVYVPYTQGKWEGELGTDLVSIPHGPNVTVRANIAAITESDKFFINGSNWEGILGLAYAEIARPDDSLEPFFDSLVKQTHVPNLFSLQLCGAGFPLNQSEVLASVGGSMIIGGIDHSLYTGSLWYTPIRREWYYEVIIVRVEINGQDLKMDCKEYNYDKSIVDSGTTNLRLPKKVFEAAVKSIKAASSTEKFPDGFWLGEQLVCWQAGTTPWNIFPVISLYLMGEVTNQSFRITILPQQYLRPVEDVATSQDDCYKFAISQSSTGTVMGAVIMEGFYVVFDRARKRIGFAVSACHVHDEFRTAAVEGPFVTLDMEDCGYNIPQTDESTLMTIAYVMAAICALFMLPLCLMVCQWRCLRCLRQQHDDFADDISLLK

Row | IC50 [1, 2] [nM] | IC50 (BACE) [nM] | SMILES | other results
1 | 4.5 | < 100 | COC1CCC2(CC1)Cc1ccc(C#CC3CC3)cc1C21C=C(N)N(C)O1 (stereo not drawn) [Compound 3] | 
2 | 293 | < 10000 | CN1OC2(C=C1N)c1cc(-c3cccc(C#N)c3)ccc1CC21CCCc2ccccc2C1 (stereo not drawn) [Compound 46] | 
3 | 138 |  | CN1OC2(N=C1N)c1cc(Br)ccc1CC21CCc2ccccc2CC1 (stereo not drawn) [Compound 67] | 
4 |  |  | COC1CCC2(CC1)Cc1ccc(-c3cccnn3)cc1C21N=C(N)N(C)O1 (stereo not drawn) [Compound 107] | IC50 [1]: 228 nM
5 |  |  | CN1OC2(N=C1N)c1cc(Br)ccc1C[C@@]21C[C@@H]1c1ccccc1 (stereo partly drawn) [Compound 460] | IC50 [1]: 9810 nM
6 | 870 |  | CN1C(=O)C2(N=C1N)c1cc(-c3cccc(C#N)c3)ccc1CC21Cc2cnncc2C1 (stereo not drawn) [Compound 471] | 
7 |  |  | COC1CCC2(CC1)Cc1ccc(C3=CC(O)CC3)cc1C21N=C(N)N(C)C1=O (stereo not drawn) [Compound 476] | IC50 (nM) [1, 2]: 33. l^a
8 |  | < 1000 | CCOC1(F)CCC2(CC1)Cc1ccc(-c3cccc(C#N)c3)cc1C21N=C(N)N(C)O1 (stereo not drawn) [compound 49] | 

Row | SMILES | IC50 [1, 2] [nM] | IC50 (BACE) [nM] | other results
9 | CN1OC2(N=C1N)c1cc(-c3cccc(C#N)c3)ccc1CC21CCS(=O)(=O)CC1 (stereo not drawn) [Compound 459] | 693 |  | 
10 | Cc1onc2c1CC1(CC2)Cc2ccc(Br)cc2C12N=C(N)N(C)C2=O (stereo not drawn) [Compound 461] | 16.7 |  | 
